Laboratory results taken from patent US6737383B1, “Herbicidal oxadiazolidines” (priority 1999, dated 2004).

How the values were obtained:
cocklebur = test: Test B pre/postemergence cocklebur; format: in vivo, Xanthium strumarium
In short: (§1)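 Test chemicals in a non-phytotoxic solvent mixture with surfactant were sprayed preemergence onto planted seeds and postemergence onto plants 2 to 18 cm tall (1- to 4-leaf stage). After twelve to sixteen days in a greenhouse, injury was visually rated against untreated controls from 0 (no effect) to 10 (complete control).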

pigweed = test: Test B pre/postemergence pigweed; format: in vivo, Amaranthus retroflexus
In short: as §1

sugar beet = test: Test B pre/postemergence sugar beet; format: in vivo, Beta vulgaris
In short: as §1

bamyardgrass = test: Test B flood test barnyardgrass; format: in vivo, Echinochloa crus-galli; details: for Plant response rating, Barnyardgrass (0 to 10 scale, 0 is no effect, 10 is complete control) / Barnyardgrass plant response rating (0 to 10 scale, 0 is no effect, 10 is complete control): visual evaluation after twelve to sixteen days; for Barnyardgrass plant response rating (0 to 10 scale, 0 is no effect, 10 is complete control): under heading Pre-emergence
In short: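 Plants were grown to the 2-leaf stage before treatment with test chemical, then held in a greenhouse for twelve to sixteen days. Injury was visually rated against untreated controls on a 0–10 scale, where 0 is no effect and 10 is complete control.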

[1] = Postemergence, Rate 125 g/ha, scale 0 to 10, 0 is no effect, 10 is complete control
[2] = Postemergence, Rate 250 g/ha, scale 0 to 10, 0 is no effect, 10 is complete control
[3] = Preemergence, Rate 62 g/ha, scale 0 to 10 (0 no effect, 10 complete control)
[4] = Preemergence, Rate 250 g/ha, scale of 0 to 10 where 0 is no effect and 10 is complete control
[5] = Preemergence, Rate 500 g/ha, scale of 0 to 10 where 0 is no effect and 10 is complete control
[6] = Rate 62 g/ha, Postemergence, scale of 0 to 10 where 0 is no effect and 10 is complete control
[7] = Rate 500 g/ha, Postemergence, scale 0 to 10, 0 no effect, 10 complete control
[8] = Rate 62 g/ha, flood test species, Pre-emergence
[9] = Rate 125 g/ha, flood test species
[10] = Rate 250 g/ha, Pre-emergence, flood-test species, scale 0 to 10, 0 is no effect, 10 is complete control
[11] = Rate 500 g/ha, Pre-emergence, flood test species, scale 0 to 10 (0 no effect, 10 complete control)
[12] = Postemergence, Rate 500 g/ha, scale of 0 to 10 where 0 is no effect and 10 is complete control
[13] = Preemergence, Rate 125 g/ha, scale of 0 to 10 where 0 is no effect and 10 is complete control
[14] = Preemergence, Rate 250 g/ha, scale 0 to 10, 0 is no effect, 10 is complete control
[15] = Preemergence, Rate 500 g/ha, scale 0 to 10, 0 is no effect, 10 is complete control
[16] = Postemergence section (flood test species), Rate 500 g/ha, scale of 0 to 10 where 0 is no effect and 10 is complete control
[17] = Postemergence, Rate 250 g/ha, scale 0 to 10
[18] = Rate 62 g/ha, Postemergence, scale 0 to 10 (0 no effect, 10 complete control)
[19] = Rate 125 g/ha, Postemergence, scale 0 to 10, 0 is no effect, 10 is complete control
[20] = Preemergence, Rate 62 g/ha, scale of 0 to 10 where 0 is no effect and 10 is complete control

CC(C)N(C(=O)n1oc(=O)n(N2C(C)CCCC2C)c1=O)c1ccc(F)cc1F (centres unmarked) [Compound 383]
Plant response rating, Cocklebur (cocklebur; [1]): 0
Plant response rating, Cocklebur (cocklebur; [2]): 0
Plant response rating, Cocklebur (cocklebur; [3]): 0
Cocklebur plant response rating (0 to 10 scale) (cocklebur; Preemergence, Rate 125 g/ha): 0
Cocklebur plant response rating (cocklebur; [4]): 0
Cocklebur plant response rating (cocklebur; [5]): 0
Cocklebur plant response rating (cocklebur; [6]): 0
Plant response rating, Cocklebur (cocklebur; [7]): 0
Plant response rating, Redroot pigweed (pigweed; [1]): 0
Plant response rating, Redroot pigweed (pigweed; [2]): 0
Plant response rating, Redroot pigweed (pigweed; [3]): 0
Redroot pigweed plant response rating (0 to 10 scale) (pigweed; Preemergence, Rate 125 g/ha): 0
Redroot pigweed plant response rating (pigweed; [4]): 0
Redroot pigweed plant response rating (pigweed; [5]): 3
Redroot pigweed plant response rating (pigweed; [6]): 0
Plant response rating, Redroot pigweed (pigweed; [7]): 0
Plant response rating, Sugarbeets (sugar beet; [1]): 0
Plant response rating, Sugarbeets (sugar beet; [2]): 0
Plant response rating, Sugarbeets (sugar beet; [3]): 0
Sugarbeets plant response rating (0 to 10 scale) (sugar beet; Preemergence, Rate 125 g/ha): 0
Sugarbeets plant response rating (sugar beet; [4]): 0
Sugarbeets plant response rating (sugar beet; [5]): 0
Sugarbeets plant response rating (sugar beet; [6]): 0
Plant response rating, Sugarbeets (sugar beet; [7]): 0
Plant response rating, Barnyardgrass (0 to 10 scale, 0 is no effect, 10 is complete control) (bamyardgrass; [8]): 0
Barnyardgrass plant response rating (0 to 10 scale, 0 is no effect, 10 is complete control) (bamyardgrass; [9]): 0
Barnyardgrass plant response rating (bamyardgrass; [10]): 0
Barnyardgrass plant response rating (bamyardgrass; [11]): 0

CC(C)N(C(=O)n1oc(=O)n(N2CCOCC2)c1=O)c1ccc(F)cc1 [Compound 385]
Plant response rating, Cocklebur (cocklebur; [1]): 0
Plant response rating, Cocklebur (cocklebur; [2]): 0
Plant response rating, Cocklebur (cocklebur; [3]): 0
Cocklebur plant response rating (0 to 10 scale) (cocklebur; Preemergence, Rate 125 g/ha): 0
Cocklebur plant response rating (cocklebur; [4]): 0
Cocklebur plant response rating (cocklebur; [5]): 0
Cocklebur plant response rating (cocklebur; [6]): 0
Plant response rating, Cocklebur (cocklebur; [7]): 0
Plant response rating, Redroot pigweed (pigweed; [1]): 0
Plant response rating, Redroot pigweed (pigweed; [2]): 0
Plant response rating, Redroot pigweed (pigweed; [3]): 2
Redroot pigweed plant response rating (0 to 10 scale) (pigweed; Preemergence, Rate 125 g/ha): 7
Redroot pigweed plant response rating (pigweed; [4]): 7
Redroot pigweed plant response rating (pigweed; [5]): 10
Redroot pigweed plant response rating (pigweed; [6]): 0
Plant response rating, Redroot pigweed (pigweed; [7]): 0
Plant response rating, Sugarbeets (sugar beet; [1]): 0
Plant response rating, Sugarbeets (sugar beet; [2]): 0
Plant response rating, Sugarbeets (sugar beet; [3]): 0
Sugarbeets plant response rating (0 to 10 scale) (sugar beet; Preemergence, Rate 125 g/ha): 1
Sugarbeets plant response rating (sugar beet; [4]): 2
Sugarbeets plant response rating (sugar beet; [5]): 7
Sugarbeets plant response rating (sugar beet; [6]): 0
Plant response rating, Sugarbeets (sugar beet; [7]): 0
Plant response rating, Barnyardgrass (0 to 10 scale, 0 is no effect, 10 is complete control) (bamyardgrass; [8]): 0
Barnyardgrass plant response rating (0 to 10 scale, 0 is no effect, 10 is complete control) (bamyardgrass; [9]): 0
Barnyardgrass plant response rating (bamyardgrass; [10]): 0
Barnyardgrass plant response rating (bamyardgrass; [11]): 0

CC(C)N(C(=O)n1oc(=O)n(CC#N)c1=O)c1ccc(F)cc1 [Compound 395]
Plant response rating, Cocklebur (cocklebur; [1]): 0
Plant response rating, Cocklebur (cocklebur; [2]): 0
Cocklebur plant response rating (cocklebur; [12]): 0
Plant response rating, Cocklebur (cocklebur; [3]): 0
Plant response rating, Cocklebur (cocklebur; [13]): 0
Cocklebur plant response rating (cocklebur; [14]): 0
Cocklebur plant response rating (cocklebur; [15]): 0
Cocklebur plant response rating (cocklebur; [6]): 0
Plant response rating, Redroot pigweed (pigweed; [2]): 0
Redroot pigweed plant response rating (pigweed; [12]): 0
Plant response rating, Redroot pigweed (pigweed; [3]): 0
Plant response rating, Redroot pigweed (pigweed; [13]): 0
Redroot pigweed plant response rating (pigweed; [14]): 0
Redroot pigweed plant response rating (pigweed; [15]): 0
Redroot pigweed plant response rating (pigweed; [6]): 0
Plant response rating, Sugarbeets (sugar beet; [2]): 0
Sugarbeets plant response rating (sugar beet; [12]): 0
Plant response rating, Sugarbeets (sugar beet; [3]): 0
Plant response rating, Sugarbeets (sugar beet; [13]): 0
Sugarbeets plant response rating (sugar beet; [14]): 0
Sugarbeets plant response rating (sugar beet; [15]): 0
Sugarbeets plant response rating (sugar beet; [6]): 0
Plant response rating, Barnyardgrass (0 to 10 scale, 0 is no effect, 10 is complete control) (bamyardgrass; [8]): 0
Barnyardgrass plant response rating (0 to 10 scale, 0 is no effect, 10 is complete control) (bamyardgrass; [9]): 0
Barnyardgrass plant response rating (bamyardgrass; [10]): 0
Barnyardgrass plant response rating (bamyardgrass; [11]): 0

CC(C)N(C(=O)n1oc(=O)n(CC2(C)COC2)c1=O)c1ccccc1 [Compound 420]
Plant response rating, Cocklebur (cocklebur; [1]): 0
Plant response rating, Cocklebur (cocklebur; [2]): 0
Cocklebur plant response rating (cocklebur; [12]): 0
Plant response rating, Cocklebur (cocklebur; [3]): 0
Plant response rating, Cocklebur (cocklebur; [13]): 0
Cocklebur plant response rating (cocklebur; [14]): 0
Cocklebur plant response rating (cocklebur; [15]): 0
Cocklebur plant response rating (cocklebur; [6]): 0
Plant response rating, Redroot pigweed (pigweed; [2]): 0
Redroot pigweed plant response rating (pigweed; [12]): 0
Plant response rating, Redroot pigweed (pigweed; [3]): 0
Plant response rating, Redroot pigweed (pigweed; [13]): 2
Redroot pigweed plant response rating (pigweed; [14]): 2
Redroot pigweed plant response rating (pigweed; [15]): 5
Plant response rating, Sugarbeets (sugar beet; [2]): 0
Sugarbeets plant response rating (sugar beet; [12]): 0
Plant response rating, Sugarbeets (sugar beet; [3]): 0
Plant response rating, Sugarbeets (sugar beet; [13]): 0
Sugarbeets plant response rating (sugar beet; [14]): 2
Sugarbeets plant response rating (sugar beet; [15]): 3
Plant response rating, Barnyardgrass (bamyardgrass; Postemergence (flood test), Rate 125 g/ha, scale 0 to 10, 0 is no effect, 10 is complete control): 0
Barnyardgrass plant response rating (bamyardgrass; [16]): 0
Barnyardgrass plant response rating (bamyardgrass; Rate 62 g/ha, Postemergence (flood test species), scale of 0 to 10 where 0 is no effect and 10 is complete control): 0
Plant response rating, Barnyardgrass (bamyardgrass; flood test species, listed under Postemergence, Rate 250 g/ha, scale 0 to 10, 0 is no effect, 10 is complete control): 0

CC(C)N(C(=O)n1oc(=O)n(C(C)C#N)c1=O)c1ccccc1 (centres unmarked) [Compound 435]
Cocklebur plant response rating (cocklebur; [17]): 0
Cocklebur plant response rating (cocklebur; [12]): 0
Plant response rating, Cocklebur (cocklebur; [3]): 0
Plant response rating, Cocklebur (cocklebur; [13]): 0
Cocklebur plant response rating (cocklebur; [14]): 0
Cocklebur plant response rating (cocklebur; [15]): 0
Cocklebur plant response rating (cocklebur; [18]): 0
Cocklebur plant response rating (cocklebur; [19]): 0
Redroot pigweed plant response rating (pigweed; [17]): 2
Redroot pigweed plant response rating (pigweed; [12]): 2
Plant response rating, Redroot pigweed (pigweed; [3]): 2
Plant response rating, Redroot pigweed (pigweed; [13]): 2
Redroot pigweed plant response rating (pigweed; [14]): 4
Redroot pigweed plant response rating (pigweed; [15]): 8
Redroot pigweed plant response rating (pigweed; [18]): 0
Redroot pigweed plant response rating (pigweed; [19]): 0
Sugarbeets plant response rating (sugar beet; [17]): 0
Sugarbeets plant response rating (sugar beet; [12]): 0
Plant response rating, Sugarbeets (sugar beet; [3]): 0
Plant response rating, Sugarbeets (sugar beet; [13]): 0
Sugarbeets plant response rating (sugar beet; [14]): 0
Sugarbeets plant response rating (sugar beet; [15]): 1
Sugarbeets plant response rating (sugar beet; [18]): 0
Sugarbeets plant response rating (sugar beet; [19]): 0
Barnyardgrass plant response rating (bamyardgrass; Postemergence block (flood test species), Rate 250 g/ha, scale 0 to 10): 0
Barnyardgrass plant response rating (bamyardgrass; [16]): 0
Barnyardgrass plant response rating (bamyardgrass; Rate 62 g/ha, Postemergence (flood test), scale 0 to 10, 0 no effect, 10 complete control): 0
Barnyardgrass plant response rating (bamyardgrass; Rate 125 g/ha, Postemergence section (flood test species), scale 0 to 10, 0 is no effect, 10 is complete control): 0

CC(C)N(C(=O)n1oc(=O)n(CCC#N)c1=O)c1ccc(Cl)cc1 [Compound 444]
Cocklebur plant response rating (cocklebur; [17]): 0
Cocklebur plant response rating (cocklebur; [12]): 0
Plant response rating, Cocklebur (cocklebur; [20]): 0
Plant response rating, Cocklebur (cocklebur; [13]): 0
Cocklebur plant response rating (cocklebur; [14]): 0
Cocklebur plant response rating (cocklebur; [15]): 0
Cocklebur plant response rating (cocklebur; [18]): 0
Cocklebur plant response rating (cocklebur; [19]): 0
Redroot pigweed plant response rating (pigweed; [12]): 2
Plant response rating, Redroot pigweed (pigweed; [20]): 10
Plant response rating, Redroot pigweed (pigweed; [13]): 10
Redroot pigweed plant response rating (pigweed; [14]): 10
Redroot pigweed plant response rating (pigweed; [15]): 10
Redroot pigweed plant response rating (pigweed; [18]): 0
Redroot pigweed plant response rating (pigweed; [19]): 2
Sugarbeets plant response rating (sugar beet; [17]): 0
Sugarbeets plant response rating (sugar beet; [12]): 3
Plant response rating, Sugarbeets (sugar beet; [20]): 0
Plant response rating, Sugarbeets (sugar beet; [13]): 0
Sugarbeets plant response rating (sugar beet; [14]): 0
Sugarbeets plant response rating (sugar beet; [15]): 0
Sugarbeets plant response rating (sugar beet; [18]): 0
Sugarbeets plant response rating (sugar beet; [19]): 0
Plant response rating, Barnyardgrass (0 to 10 scale, 0 is no effect, 10 is complete control) (bamyardgrass; [8]): 0
Barnyardgrass plant response rating (0 to 10 scale, 0 is no effect, 10 is complete control) (bamyardgrass; [9]): 0
Barnyardgrass plant response rating (bamyardgrass; Rate 250 g/ha, Pre-emergence (flood test species), scale 0 to 10, 0 is no effect, 10 is complete control): 0
Barnyardgrass plant response rating (bamyardgrass; [11]): 0
